Series [1] is described as follows: Test regarding solubility in artificial intestinal juice (FaSSIF). In kind it is physicochemical. The note with it: after lapsing 0.25 hours; for solubility per free base / solubility: 37° C.; for solubility / solubility at 0.25 h: artificial intestinal juice (FaSSIF); for solubility at 0.25 h: 37 °C, fassif, thermodynamic from solid. As for the experimental part: About 5 mg of the present compound was weighed in a test tube, a stirrer and 5 mL of an artificial intestinal juice (FaSSIF; Reference 1: Pharmaceutical Research, Vol. 20, pp. 1674-1680, 2003, and Reference 2: Biological & Pharmaceutical Bulletin, Vol. 34, pp. 401-407, 2011) were added in the test tube, and the test tube was then hermetically sealed. The test tube was placed in a solubility test apparatus (Gilson, Quad-Z 215), and stirring was performed at 37° C. and 700 rpm. A part of the liquid in the test tube was collected after lapsing 0.25, 0.5, 1, 3, 6, and 24 hours, respectively. The collected liquid was filtered with a filter, and the filtrate was diluted to 2-fold with acetonitrile. The diluted liquid was centrifuged at 3,000 rpm for 5 minutes. A supernatant after centrifugation was used as a sample solution and calculated for solubility by means of high-performance liquid chromatography.
High-Performance Liquid Chromatography Measurement Conditions

Series [2] concerns sodium monoiodoacetate-induced model rats. As to the kind of experiment: Analgesic effect on sodium monoiodoacetate-induced model rats. It counts as in vivo, rat. The note with it: MIA rats, day 24.
The test system of series [3] is rat NGF-induced vascular hyper permeability. As to the kind of experiment: Inhibiting effect of rat NGF-induced vascular hyper permeability. In kind it is in vivo. Particulars: 1 mg/kg oral (as free base). As for the experimental part:
TrkA-inhibiting activity of the present compound was evaluated in vivo. The present compound dissolved in a medium was orally administered (adminstered volume: 5 mL/kg) to male CD(SD)IGS rats (7- to 9-week old, Charles River Laboratories Japan, Inc.) shaved on the back. A medium was orally administered (adminstered volume: 5 mL/kg) to the control and normal groups. After 12 or 14 hours of administration, 3 μg/mL of an NGF (Mouse 2.5s, Natural, Invitrogen) solution prepared in 0.1% BSA (Sigma-Aldrich)-containing saline was intracutaneously administered (adminstered volume; 50 μL/site) at 3 sites on the back of animals under halothane anesthesia. For the normal group, 0.1% BSA-containing saline was intracutaneously administered (adminstered volume; 50 μL/site) at 3 sites on the back. Immediately after intracutaneous administration, 1% Evans Blue (Tokyo Chemical Industriy Co., Ltd.) dissolved in saline was administered intravenously from tail (adminstered volume: 3 mL/kg). After 10 minutes of administration, the animals were sacrificed by bleeding due to incision of the abdominal aorta. The sites of intracutaneous administration on the back (3 sites) were excised, and the skin samples were respectively transferred to the wells in a 48-well plate (Asahi Glass Co., Ltd.). […] The formamide extraction solution (200 μL) was transferred to a 96-well plate, and the absorbance (wavelength: 620 nm) of Evans Blue extracted in formamide was measured on an absorbance microplate reader (SpectraMAX 190, Molecular Devices Japan, K.K.). Standard samples of Evans Blue dissolved in formamide (0, 0.78, 1.56, 3.13, 6.25, 12.5, 25, and 50 μg/mL) were measured at the same time for the absorbance (wavelength: 620 nm), thereby preparing a calibration curve. Based on the calibration curve and the absorbances of the respective samples, the concentrations of Evans Blue in each sample was calculated. […] The rate of inhibition for rat NGF-induced vascular hyper permeability of the present compound was calculated according to the following Equation 4. […]

[4] abbreviates: FaSSIF, salt value converted to the corresponding free base, Methanesulfonate.
[5] abbreviates: as the substance itself (salt or free base), Methanesulfonate.
The mark [6] stands for this setting: FaSSIF, salt value converted to the corresponding free base, read-out: solubility per free base.
Setting [7] is: present compound oral twice a day over 10 days, then 3 hours before measurement, dose (0.1, 0.3 or 1 mg/kg) not given.
The mark [8] stands for this setting: 14 hours before administration of NGF.

For orientation: solubility means the dissolved amount per volume that the medium holds.

SMILES strings stand for the structures. Where two headings read alike, the source gives them in different places.

Regarding `CS(=O)(=O)c1ccc(C(F)(F)F)cc1NC(=O)Nc1cnc(Oc2ccc(-c3cc(Cl)cnc3N)cc2)nc1` [methanesulfonate of Compound (I), 1-{2-[4-(2-amino-5-chloro-3-pyridinyl)phenoxy]-5-pyrimidinyl}-3-[2-(methylsulfonyl)-5-(trifluoromethyl)phenyl]urea Methanesulfonate], in series [1] (setting [4]), the “solubility per free base” value turned out to be 47 µg/mL. In series [1] (setting [5]), the solubility was determined as 55 µg/mL.
Take `CS(=O)(=O)c1ccc(C(F)(F)F)cc1NC(=O)Nc1cnc(Oc2ccc(-c3cc(Cl)cnc3N)cc2)nc1` [p-toluenesulfonate of Compound (I), 1-{2-[4-(2-amino-5-chloro-3-pyridinyl)phenoxy]-5-pyrimidinyl}-3-[2-(methylsulfonyl)-5-(trifluoromethyl)phenyl]urea p-toluenesulfonate]: in series [1] (as the substance itself (salt or free base), p-toluenesulfonate), the solubility worked out at 96 µg/mL. In addition, the solubility at 0.25 h in series [1] (setting [6]) was 74 µg/mL.
On to `COc1cccc(C2(O)CCCCC2CN(C)C)c1` (stereo not drawn) [tramadol, reference compound], for which the “percent improvement (right hind limb weight load ratio)” value in series [2] (tramadol 10 mg/kg subcutaneous one hour before measurement) came out at 43%.
`CN1CC[C@]23c4c5ccc(O)c4O[C@H]2[C@@H](O)C=C[C@H]3[C@H]1C5` [morphine, reference compound]: the “percent improvement (right hind limb weight load ratio)” value in series [2] (morphine 3 mg/kg subcutaneous one hour before measurement) is 54%.
In the case of `CS(=O)(=O)c1ccc(C(F)(F)F)cc1NC(=O)Nc1cnc(Oc2ccc(-c3cc(Cl)cnc3N)cc2)nc1.Cl` [hydrochloride of Compound (I), 1-{2-[4-(2-amino-5-chloro-3-pyridinyl)phenoxy]-5-pyrimidinyl}-3-[2-(methylsulfonyl)-5-(trifluoromethyl)phenyl]urea Hydrochloride], the “percent improvement (right hind limb weight load ratio)” value in series [2] (setting [7]) was “about 54%”. The “inhibition rate of rat NGF-induced vascular hyper permeability” value (“inhibition rate” below) in series [3] (setting [8]) is listed as “about 100%”.
As to `Nc1ncc(F)cc1-c1ccc(Oc2ncc(NC(=O)Nc3cc(C(F)(F)F)ccc3-c3cccnc3)cn2)cc1` [di(p-toluenesulfonate) of Compound (II), 1-{2-[4-(2-amino-5-fluoropyridin-3-yl)phenoxy]pyrimidin-5-yl}-3-[2-(pyridin-3-yl)-5-(trifluoromethyl)phenyl]urea di(p-toluenesulfonate)], the “percent improvement (right hind limb weight load ratio)” value in series [2] (setting [7]) is reported as “about 53%”. Moreover, the “inhibition rate” value in series [3] (12 hours before administration of NGF) is given as “about 78%”. Further, the solubility in series [1] (as the substance itself (salt or free base), di(p-toluenesulfonate)) was found to be 99 µg/mL. For the same compound, the solubility at 0.25 h in series [1] (setting [6]) came to 61 µg/mL.
Regarding `CS(=O)(=O)c1ccc(C(F)(F)F)cc1NC(=O)Nc1cnc(Oc2ccc(-c3cc(Cl)cnc3N)cc2)nc1` [Compound (I), 1-{2-[4-(2-amino-5-chloro-3-pyridinyl)phenoxy]-5-pyrimidinyl}-3-[2-(methylsulfonyl)-5-(trifluoromethyl)phenyl]urea], the solubility in series [1] (as the substance itself (salt or free base)) amounted to 7 µg/mL.
Turning to `Nc1ncc(F)cc1-c1ccc(Oc2ncc(NC(=O)Nc3cc(C(F)(F)F)ccc3-c3cccnc3)cn2)cc1` [dibenzenesulfonate of Compound (II), 1-{2-[4-(2-amino-5-fluoropyridin-3-yl)phenoxy]pyrimidin-5-yl}-3-[2-(pyridin-3-yl)-5-(trifluoromethyl)phenyl]urea dibenzenesulfonate], the “solubility per free base” value in series [1] (FaSSIF, salt value converted to the corresponding free base, dibenzenesulfonate) came out at 52 µg/mL. The solubility in series [1] (as the substance itself (salt or free base), dibenzenesulfonate) worked out at 81 µg/mL.
For `Nc1ncc(Cl)cc1-c1ccc(Oc2ncc(NC(=O)Nc3cc(C(F)(F)F)ccc3-n3cccn3)cn2)cc1` [methanesulfonate of Compound (III), 1-(2-(1H-pyrazol-1-yl)-5-(trifluoromethyl)phenyl)-3-(2-(4-(2-amino-5-chloropyridin-3-yl)phenoxy)pyrimidin-5-yl)urea Methanesulfonate], the “percent improvement (right hind limb weight load ratio)” value in series [2] (setting [7]) is listed as “about 61%”. In addition, the “inhibition rate” value in series [3] (setting [8]) is on record as “about 97%”. Further, the “solubility per free base” value in series [1] (setting [4]) came to 45 µg/mL. For the same compound, the solubility in series [1] (setting [5]) turned out to be 53 µg/mL.
With `Nc1ncc(Cl)cc1-c1ccc(Oc2ncc(NC(=O)Nc3cc(C(F)(F)F)ccc3-n3cccn3)cn2)cc1` [p-toluenesulfonate of Compound (III), 1-(2-(1H-pyrazol-1-yl)-5-(trifluoromethyl)phenyl)-3-(2-(4-(2-amino-5-chloropyridin-3-yl)phenoxy)pyrimidin-5-yl)urea p-Toluenesulfonate], the solubility at 0.25 h in series [1] (setting [6]) was 42 µg/mL; in series [1] (as the substance itself (salt or free base), read-out: solubility), 55 µg/mL.

For the origin of these results see patent publication US10399959B2, “Acid-addition salt of Trk-inhibiting compound” (ONO PHARMACEUTICAL CO., LTD., priority 2014, dated 2019).
